Test results as given in patent US20080188499A1, “Carbo- and Hetero-Cyclic Antibiotics and Use Thereof” (priority 2004, published 2008).
Values after ≈ are worked out from the molar mass of the structure shown. Like-named read-outs stand apart in the source and are kept apart here.

Experiments:
DNA metabolism = assay: Mode of action studies: macromolecular biosynthesis assays (incorporation of radiolabeled precursors); format: cell-based; conditions: FIG. 1; initial mode of action studies
Experimental: Mode of action studies. Macromolecular biosynthesis assays were performed to identify the microbial cellular processes selectively affected by antibiotic compounds. Exponentially growing bacteria in MHB were washed and diluted in a complete synthetic medium to an optical density of 0.2 (at 600 nm). Cells were then distributed in 96-well plates containing serially diluted antibiotic compounds and radiolabeled precursors. The radiolabeled precursors were D-[^3H]-alanine for peptidoglycan synthesis, [^3H]-thymidine for DNA synthesis, [^3H]-uridine for RNA synthesis and [^3H]-leucine for protein synthesis. Incorporation was allowed for 30 minutes at 35° C. before macromolecules were precipitated for 1 hour on ice in the presence of 10% trichloroacetic acid. The radioactive precipitates were then collected onto GC filters and the radioactivity measured by liquid scintillation counting. Data were expressed as the percentage of radioactivity incorporated compared to control cells grown in the absence of antibiotic compound.

S. aureus strain Newman = assay: In vivo efficacy: S. aureus model of systemic infection in the mouse; conditions: for antimicrobial activity in vivo (viable bacteria in the kidneys): S. aureus systemic infection, administrated by gavage 1 hour post-infection, kidneys 5 hours after inoculation
Experimental: In vivo efficacy. The antimicrobial activity of compounds was also evaluated in a S. aureus model of systemic infection in the mouse. To produce the systemic infection, CD-1 female mice (20 g) were injected intra-peritoneally with 10^7 CFU of S. aureus strain Newman suspended in 0.5 ml of endotoxin-free PBS containing 5% mucin (w/v). The compounds were administrated at 1 hour post-infection and kidneys harvested and pooled, for each animal, 5 hours after bacterial inoculation. Tissues were homogenized in PBS and homogenates serially diluted and plated for CFU determination.

E. coli ATCC 25922 = assay: MIC determination by broth microdilution, E. coli; format: cell-based, Escherichia coli
Experimental: (§1) Bacteria. Susceptibility tests were performed against several bacterial species following the recommendations from the National Committee for […] (NCCLS). The MICs were determined by a broth microdilution technique using a final volume of 100 μl of cation-adjusted Mueller Hinton Broth (MHBCA) and a bacterial inoculum of 10^5-10^6 Colony Forming Units (CFU)/ml. The inocula were verified and precisely determined by applying 10 μl drops of 10 fold dilutions onto Triptic Soy Agar plates. The CFU were counted after an incubation of 24 h at 35° C. Any experiment showing an inoculum that was more or less than 10^5-10^6 CFU/ml was rejected. Control antibiotics and test compounds were prepared at a concentration equivalent to 2 fold the highest desired final concentration. Compounds were then diluted directly in the 96-well microtiter plates by serial 2-fold dilutions using a multichannel pipette. Microtiter plates were incubated for 24 h at 35° C. and growth was recorded by using a microtiter plate reader at 650 nm as well as by visual observation. The MIC was defined as the lowest concentration of compound yielding no visible growth. At least two commercial antibiotics (e.g., imipenem and vancomycin) were always included as internal microtiter plate controls in each MIC assay.

[1] = tested on: Methicillin-Sensitive S. aureus strains (MSSA); assay: MIC determination, Methicillin-Sensitive S. aureus; format: cell-based; conditions: Staphylococcus aureus
Experimental: as §1

Haemophilus influenzae = assay: MIC determination, Haemophilus influenzae; format: cell-based
Experimental: as §1
(§2) Fastidious bacteria. […]

B. atrophaeus = assay: MIC determination, B. atrophaeus; format: cell-based; conditions: Bacillus atrophaeus
Experimental: as §1

B. cereus = assay: MIC determination, B. cereus; format: cell-based; conditions: Bacillus cereus
Experimental: as §1

[2] = tested on: Branhamella (Moraxella) catarrhalis; assay: MIC determination, Branhamella (Moraxella) catarrhalis; format: cell-based
Experimental: as §1, §2

MRSA strains = assay: MIC determination by broth microdilution, antibiotic multi-resistant MRSA strains; format: cell-based, S. aureus
Experimental: as §1

E. faecalis = assay: MIC determination, Enterococci; format: cell-based; conditions: Enterococcus faecalis
Experimental: as §1

Yersinia enterocolytica = assay: MIC determination, Yersinia enterocolytica; format: cell-based
Experimental: as §1

Burkholderia cepacia = assay: MIC determination, Burkholderia cepacia; format: cell-based
Experimental: as §1

[3] = tested on: bacterial genus Mycobacterium; assay: MIC determination, Mycobacterium; format: cell-based, Mycobacterium smegmatis
Experimental: as §1, §2

anaerobic bacteria = assay: MIC determination, anaerobic bacteria; format: cell-based; conditions: Bacteroides fragilis
Experimental: as §1, §2

B. subtilis = assay: MIC determination, B. subtilis; format: cell-based; conditions: Bacillus subtilis
Experimental: as §1

[4] = Escherichia coli, ATCC25922, E. coli ATCC 25922, read-out: MIC

In the case of `O=[N+]([O-])c1ccc(C=Cc2nc(Nc3ccc(O)c(O)c3)c3ccccc3n2)o1` [Example 1, Compound VI, 2-[2-(5-nitro-2-furyl)vinyl]-4-(3,4-dihydroxyanilino)quinazoline], the “mode of action (cellular process affected, incorporation of radiolabeled precursors into macromolecules)” value (DNA metabolism) is reported as “inhibition of DNA metabolism”, the toxicity in vivo (S. aureus strain Newman; S. aureus systemic infection model) is reported as “relatively low toxicity” and the “antimicrobial activity in vivo (viable bacteria in the kidneys)” value (S. aureus strain Newman; listed as 2-[2-(5-nitro-2-furyl)vinyl]-4-(3,4-dihydroxyanilino)-quinazoline) is reported as “active in vivo”. The “antimicrobial activity in vivo (viable bacteria in the kidneys)” value (S. aureus strain Newman; listed as Example 1 compound VI) was “reduced the presence of viable bacteria in the kidneys” and the MIC (E. coli ATCC 25922; [4]) was 0.5 µg/mL (≈ 1.28 µM).

`CN1CCN(c2cc3nc(/C=C/c4ccc([N+](=O)[O-])o4)nc(Nc4ccc(O)c(O)c4)c3cc2F)CC1` [Example VIII compound “q”] showed an MIC [1] of 4 to 8 µg/mL (≈ 7.9 to 15.8 µM), an MIC (Haemophilus influenzae) of 1 µg/mL (≈ 1.97 µM) and an MIC (B. atrophaeus) of 8 µg/mL (≈ 15.8 µM). For the same compound, the MIC (B. cereus) was 8 µg/mL (≈ 15.8 µM), the MIC [2] was 1 µg/mL (≈ 1.97 µM) and the MIC (MRSA strains; Staphylococcus aureus, MRSA, MRSA strain Sa211c, read-out: MIC) was 8 µg/mL (≈ 15.8 µM). For the same compound, the MIC (MRSA strains; Staphylococcus aureus, MRSA, MRSA strain Sa212c, read-out: MIC) was 8 µg/mL (≈ 15.8 µM), the MIC (MRSA strains; Staphylococcus aureus, MRSA, MRSA strain Sa220c, read-out: MIC) was 4 µg/mL (≈ 7.9 µM) and the MIC (MRSA strains; Staphylococcus aureus, MRSA, MRSA strain Sa224c, read-out: MIC) was 8 µg/mL (≈ 15.8 µM). The MIC (MRSA strains; Staphylococcus aureus, MRSA, MRSA strain Sa228c, read-out: MIC) was 8 µg/mL (≈ 15.8 µM), the MIC (MRSA strains; Staphylococcus aureus, MRSA, MRSA strain Sa234c, read-out: MIC) was 8 µg/mL (≈ 15.8 µM) and the MIC (MRSA strains; Staphylococcus aureus, MRSA, MRSA strain Sa248c, read-out: MIC) was 8 µg/mL (≈ 15.8 µM). The MIC (MRSA strains; Staphylococcus aureus, MRSA, MRSA strain Sa249c, read-out: MIC) was 8 µg/mL (≈ 15.8 µM), the MIC (MRSA strains; Staphylococcus aureus, MRSA, MRSA strain Sa253c, read-out: MIC) was 8 µg/mL (≈ 15.8 µM) and the MIC (MRSA strains; Staphylococcus aureus, MRSA, Methicillin-Resistant S. aureus strains (MRSA), read-out: MIC) was 4 to 8 µg/mL (≈ 7.9 to 15.8 µM). For the same compound, the MIC (E. faecalis) was 8 µg/mL (≈ 15.8 µM), the MIC (Yersinia enterocolytica) was 8 µg/mL (≈ 15.8 µM) and the MIC (Burkholderia cepacia) was 8 µg/mL (≈ 15.8 µM). For the same compound, the MIC [3] was 8 µg/mL (≈ 15.8 µM), the MIC (anaerobic bacteria) was 8 µg/mL (≈ 15.8 µM) and the MIC (B. subtilis) was 8 µg/mL (≈ 15.8 µM).

`CCn1cc(C(=O)O)c(=O)c2cc(F)c(N3CCNCC3)cc21` [Norfloxacin] showed an MIC (E. coli ATCC 25922; [4]) of 0.03 to 0.06 µg/mL (≈ 0.0939 to 0.188 µM).

Work on `CN[C@H](CC(C)C)C(=O)N[C@H]1C(=O)N[C@@H](CC(N)=O)C(=O)N[C@H]2C(=O)N[C@H]3C(=O)N[C@H](C(=O)N[C@H](C(=O)O)c4cc(O)cc(O)c4-c4cc3ccc4O)[C@H](O)c3ccc(c(Cl)c3)Oc3cc2cc(c3O[C@@H]2O[C@H](CO)[C@@H](O)[C@H](O)[C@H]2O[C@H]2C[C@](C)(N)[C@H](O)[C@H](C)O2)Oc2ccc(cc2Cl)[C@H]1O` [Vancomycin] yielded an MIC (E. coli ATCC 25922; Escherichia coli, ATCC25922) of over 64 µg/mL.

For Gentamicin [reference compound], the MIC (E. coli ATCC 25922; E. coli ATCC 25922) was 0.5 to 2 µg/mL, the MIC (MRSA strains; MRSA strain Sa211c) was 1 µg/mL and the MIC (MRSA strains; MRSA strain Sa212c) was 0.25 µg/mL. For the same compound, the MIC (MRSA strains; MRSA strain Sa220c) was 0.5 µg/mL, the MIC (MRSA strains; MRSA strain Sa224c) was 0.25 µg/mL and the MIC (MRSA strains; MRSA strain Sa228c) was 32 µg/mL. The MIC (MRSA strains; MRSA strain Sa234c) was 1 µg/mL.
